Consider one substance from US20230117205A1, “B7-H4 ANTIBODY-DRUG CONJUGATES FOR THE TREATMENT OF CANCER” (SEAGEN INC., priority 2021, published 2023).

The nature of data set [1]: Non-human primate (NHP) and rat tox study. It counts as in vivo, rat and cynomolgus monkey. The source says: The nonclinical safety profile of SGN-B7H4V supports the proposed initial clinical development plan. […] The hematologic toxicity is consistent with the mechanism of action (MOA) for MMAE.
In data set [2] the test system is MDA-MB-468 tumor and PBMC co-cultures. Description: Tumor/PBMC co-culture assay. Type of data set: cell-based, human. Conditions: tumor/immune cell co-cultures. On the procedure:
Tumor cells were transfected with Incucyte® Cytolight red lentivirus per manufacturer's instructions and stable polyclonal cell populations expressing mKate2 (red fluorescent protein, RFP) were generated under puromycin selection. Live-cell killing assays were performed by seeding RFP+ MDA-MB-468 tumor cells in 96-well flat bottom plates (Corning #3603) at a variety of densities (3,750-10,000 cells/well) and grown overnight. The following day, PBMCs isolated from healthy donors were added at 15:1 or 25:1 effector to target (E:T) ratios and cultures were treated with the indicated small molecule drugs or ADCs. To evaluate immune cell activation, supernatants were harvested between 120 and 144 hours post treatment and MIP-1β production was evaluated by Milliplex MAP Human cytokine/chemokine/growth factor panel A (12-plex) Immunology Multiple Assay (Millipore Sigma #HCYTA-60K-12C). […] Following the final wash, cell pellets were resuspended in 200 μL staining buffer and analyzed on an NXT Attune flow cytometer (ThermoFisher). Flow cytometry data were analyzed using FlowJo software and monocyte activation was quantified by measuring the MFI of CD86 staining on CD14+ monocytes within the RFP−/live/CD19−/CD3−/CD14+ gate.

In another data set the test system is SKBR3. Kind of data set: In vitro cytotoxicity, 96-hour 3D spheroid, CellTiter-Glo. It counts as cell-based, human. On the procedure: (§1) The cytotoxicity was evaluated when cells were grown in 3D spheroid (round bottom, ultra-low attachment plates) conditions.
(§2) Cancer cell lines expressing B7-H4 (SKBR3, MX-1, and MDA-MB-468) as well as a non-B7-H4-expressing cell line (MDA-MB-231) were thawed from cryovials stored at […] into complete growth media and allowed to grow and recover from thaw at 37° C. and 5% CO2 until cell viability determined by Vi-CELL XR (Beckman Coulter, Indianapolis, Ind.) were above 90%. Cells were then counted and plated at 2000, 2200, 2200, and 2200 cells/well respectively. Cells were plated in 150 μL complete growth media in round bottom, black walled, ultra-low attachment, 96-well plates (Corning 4520). Cell plates were placed at 37° C. and 5% CO2 overnight to allow cells to adhere. ADCs were thawed and 4×8-point serial dilutions were prepared (final dose range 1000-0.061 ng/mL) in RPMI 1640+20% FBS. Fifty μL of each dilution were then added to each cell plate in triplicate. Cells were then left to incubate at 37° C. and 5% CO2 for 96 hours. Cell plates were then removed from the incubator and allowed to cool to room temperature for 30 minutes. CellTiter-Glo® luminescent assay (Promega Corporation, Madison, Wis.) was prepared according to Promega's protocol. One hundred uL CellTiter-Glo® were added to assay plates using a Formulatrix Tempest liquid handler (Formulatrix, Inc.) and plates were heat sealed using an ALPS300 automated microplate heat sealer (Thermo Scientific) and protected from light for 30 minutes at room temperature. The luminescence of each plate was then determined using an EnVision Multilabel plate reader (Perkin Elmer, Waltham, Mass.). […] One hundred uL of lysed spheroid suspension was then transferred to a black walled, flat bottom 96 well plate and read on the EnVision Multilabel plate reader (Perkin Elmer, Waltham, Mass.). Raw data were then analyzed in Graphpad Prism (San Diego, Calif.) using a non-linear, 4-parameter curve fit model (Y=Bottom+[Top-Bottom]/[1+10^[[Log EC50-X]×HillSlope]]). […]

The subject of a further data set is MDA-MB-231. The description is as above. Type of data set: cell-based, human. Conditions: MDA-MB-231 (non-B7-H4-expressing). As to the method: as §1, §2
The test system of a further data set is MDA-MB-468. The description is as above. It counts as cell-based, human. As to the method: as §1, §2

As to “SGN-B7H4V: ADC of fully human IgG1 anti-B7-H4 mAb conjugated to monomethyl auristatin E (MMAE) via a protease-cleavable valine-citrulline linker (vedotin)”, the “primary target organs of toxicity” value in data set [1] (pivotal GLP and non-GLP studies) was “hematological system, testes, and ovaries”. The tolerability result in data set [1] (rat and cynomolgus monkey) is “tolerated in the rat and cynomolgus monkey”. Moreover, in data set [2], the “CD86 on CD14+ monocytes” value is on record as “upregulation of the costimulatory molecule CD86”. Besides, the “release of MIP-1β/CCL4” value in data set [2] is recorded as “led to the release of the chemoattractant MIP-1β/CCL4”. Besides, the results for the “×50” value in the data set on SKBR3, with MDA-MB-231 and with MDA-MB-468 were 4 ng/mL, above 1000 ng/mL and 105 ng/mL, respectively.
